19 compounds from US9221838B2, “Inhibitors of AKT activity” (ALMAC DISCOVERY LIMITED, priority 2009, dated 2015) can be followed below.

What all share (assay type): biochemical
One assay deals with T1, AKT2 (Homo sapiens, UniProt P31751).
T1 construct: purchased SignalChem
Briefly: AKT Kinase Assay (IMAP fluorescent polarisation) vs AKT2. Here is the method: (§1) Testing of the compounds was performed using an AKT Kinase Assay:
(§2) Activated AKT isoforms 1, 2 and 3 were assayed utilising a 5′ FAM Crosstide (Seq. GRPRTSSFAEG-OH)(SEO ID NO: 1). The extent of kinase phosphorylation was determined by fluorescent polarisation using IMAP progressive binding reagent, which introduces binding beads which allow the reagent to specifically bind to phosphate residues via covalent co-ordination complex bonds.
(§3) iMAP binding solution stops Crosstide/kinase interaction and specifically binds phosphorylated substrates. The degree of phosphorylation is determined by fluorescent polarisation (excitation 485 nm; emission 528 nm) or the reduction in speed of rotation of the excited substrate.
(§4) The following materials were used in the assay: • a) Activated AKT isoforms (SignalChem.) dissolved in Complete Reaction buffer at a pre-determined concentration selected so that the assay was carried out in the linear range. • b) AKT substrate peptide: FAM Crosstide (R7110) Molecular Devices, diluted in complete reaction buffer. • c) iMAP Progressive Screening Express Kit (R8127) Molecular Devices • d) Complete Reaction Buffer containing 0.1% BSA, 10 mM Tris-HCl, 10 mM MgCl2, 0.05% NaN3 and 0.01% phosphate free BSA, 1 mM DTT • e) Progressive Binding Solution containing 75% Buffer A, 25% Buffer B and low volume Binding Reagent which contains the binding entity for the assay • f) ATP diluted in complete reaction buffer • g) Black polystyrene 384 well assay plates (Nunc). • h) Biotek Synergy 4 Hybrid Plate reader.
(§5) 5 μl of test compound was dissolved in DMSO (Sigma Aldrich) and serially diluted in complete reaction buffer to give a fourteen point half log dose response and plated into 384 well black plates. The compound was incubated at room temperature with activated AKT isoform ([…] ) at the pre-determined concentration, for 45 minutes.
(§6) 2.5 μl of ATP solution mixed with 2.5 μl of AKT substrate peptide (FAM Crosstide (R7110) Molecular Devices) were dispensed into each well and the plate centrifuged at 1000 rpm for 20 seconds to ensure homogenous mixing of reagents. The reaction mix was incubated in the dark for one hour at room temperature.
(§7) The kinase reaction was stopped by the addition of Progressive Binding Solution and the mixture allowed to equilibrate for one hour in the dark, at room temperature.
(§8) The fluorescent polarisation generated in each well was determined using a […] Synergy 4 Hybrid plate reader. In brief, each reaction solution was excited at 485 nm with the emission measured at 528 nm in both the parallel and perpendicular pathway.
(§9) The polarisation value generated in each well was calculated by Gen5 software (Biotek) and the % inhibition of kinase activity compared to vehicle control was calculated via GraphPad Prism. IC50 values for each compound were calculated by non-linear regression analysis using Prism software.
(§10) All plates were internally controlled by two methods. Firstly, by calculating the signal:noise ratio; based on kinase polarisation without inhibitor and polarisation generated by complete reaction buffer in the absence of activated kinase. Secondly by determining IC50 values generated by known inhibitors of the AKT isoforms.

For the next assay, the target named is T2, AKT3 (Homo sapiens, UniProt Q9Y243).
T2 construct: purchased SignalChem
As to the kind of experiment: AKT Kinase Assay (IMAP fluorescent polarisation) vs AKT3. Here is the method: as §1, §2, §3, §4, §5, §6, §7, §8, §9, §10

The target of another assay is T3, AKT1 (Homo sapiens, UniProt P31749).
T3 construct: purchased SignalChem
Briefly: AKT Kinase Assay (IMAP fluorescent polarisation) vs AKT1. As for the experimental part: as §1, §2, §3, §4, §5, §6, §7, §8, §9, §10

T2 sequence (Q9Y243 whole entry): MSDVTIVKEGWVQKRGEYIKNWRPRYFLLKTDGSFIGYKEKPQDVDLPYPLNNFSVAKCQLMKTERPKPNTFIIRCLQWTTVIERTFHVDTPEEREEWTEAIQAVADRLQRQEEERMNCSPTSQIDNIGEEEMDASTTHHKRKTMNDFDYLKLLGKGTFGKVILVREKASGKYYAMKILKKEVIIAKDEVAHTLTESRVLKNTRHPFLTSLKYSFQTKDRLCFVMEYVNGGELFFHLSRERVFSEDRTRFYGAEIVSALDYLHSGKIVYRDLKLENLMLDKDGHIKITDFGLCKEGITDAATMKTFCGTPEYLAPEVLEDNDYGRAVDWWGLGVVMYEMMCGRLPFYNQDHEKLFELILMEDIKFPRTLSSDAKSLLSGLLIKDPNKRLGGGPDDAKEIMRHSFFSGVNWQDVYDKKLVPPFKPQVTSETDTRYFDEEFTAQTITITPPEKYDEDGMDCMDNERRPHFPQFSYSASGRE
T3 sequence (P31749 whole entry): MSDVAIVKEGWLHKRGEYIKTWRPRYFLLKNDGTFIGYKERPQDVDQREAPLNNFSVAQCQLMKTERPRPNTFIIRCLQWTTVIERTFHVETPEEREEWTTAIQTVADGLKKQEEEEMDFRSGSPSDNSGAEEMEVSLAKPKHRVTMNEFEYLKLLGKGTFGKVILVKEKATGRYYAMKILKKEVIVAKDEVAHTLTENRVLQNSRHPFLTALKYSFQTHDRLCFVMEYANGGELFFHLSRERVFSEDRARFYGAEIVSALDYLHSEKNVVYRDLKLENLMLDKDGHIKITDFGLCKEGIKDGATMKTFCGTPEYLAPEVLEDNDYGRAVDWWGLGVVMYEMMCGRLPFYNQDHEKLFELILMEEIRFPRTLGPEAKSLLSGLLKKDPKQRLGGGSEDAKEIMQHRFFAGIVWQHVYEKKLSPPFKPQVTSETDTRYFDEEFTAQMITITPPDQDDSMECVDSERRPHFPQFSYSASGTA
T1 sequence (P31751 whole entry): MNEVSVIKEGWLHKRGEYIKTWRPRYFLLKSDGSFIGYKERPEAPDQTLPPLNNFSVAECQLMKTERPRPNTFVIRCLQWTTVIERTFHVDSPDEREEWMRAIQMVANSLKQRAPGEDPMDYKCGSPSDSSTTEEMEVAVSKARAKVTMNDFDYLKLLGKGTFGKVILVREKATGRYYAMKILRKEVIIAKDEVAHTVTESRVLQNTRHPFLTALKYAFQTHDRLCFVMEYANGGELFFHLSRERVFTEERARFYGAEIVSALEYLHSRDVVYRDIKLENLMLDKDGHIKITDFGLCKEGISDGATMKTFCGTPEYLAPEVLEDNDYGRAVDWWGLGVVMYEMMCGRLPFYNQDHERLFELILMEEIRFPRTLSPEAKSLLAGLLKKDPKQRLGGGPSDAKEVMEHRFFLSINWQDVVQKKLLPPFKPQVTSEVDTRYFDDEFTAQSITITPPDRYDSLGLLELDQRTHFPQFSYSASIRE

In the case of `NC(=O)CN1C(=O)COc2nc(-c3ccc(C4(N)CCC4)cc3)c(-c3ccccc3)cc21` [Example 35, 2-(6-(4-(1-aminocyclobutyl)phenyl)-2-oxo-7-phenyl-2,3-dihydro-1H-pyrido[2,3-b][1,4]oxazin-1-yl)acetamide], the results for the IC50 at AKT2, at AKT3 and at AKT1 were 100 to 1000 nM, over 10000 nM and 1000 to 10000 nM, respectively.

As for `N#CCCN1C(=O)COc2nc(-c3ccc(C4(N)CCC4)cc3)c(-c3ccccc3)cc21` [Example 62, 3-(6-(4-(1-aminocyclobutyl)phenyl)-2-oxo-7-phenyl-2,3-dihydro-1H-Pyrido[2,3-b][1,4]oxazin-1-yl)propanenitrile], the results for the IC50 at AKT2, on AKT3 and at AKT1 were 100 to 1000 nM, 1000 to 10000 nM and 1000 to 10000 nM, respectively.

Regarding `C[C@H]1Oc2nc(-c3ccc(C4(N)CCC4)cc3)c(-c3ccccc3)cc2N(CC#N)C1=O` [Example 93, (R)-2-(6-(4-(1-aminocyclobutyl)phenyl)-3-methyl-2-oxo-7-phenyl-2,3-dihydro-1H-pyrido[2,3-b][1,4]oxazin-1-yl)acetonitrile], the results for the IC50 at AKT2, on AKT3 and on AKT1 were at most 100 nM, 1000 to 10000 nM and at most 100 nM, respectively.

`CN1C(=O)C(CCO)Oc2nc(-c3ccc(C4(N)CCC4)cc3)c(-c3ccccc3)cc21` (stereo not drawn) [Example 77, 6-(4-(1-aminocyclobutyl)phenyl)-3-(2-hydroxyethyl)-1-methyl-7-phenyl-1H-pyrido[2,3-b][1,4]oxazin-2(3H)-one]: the IC50 at AKT2 is 1000 to 10000 nM; on AKT3 it was over 10000 nM; at AKT1 it was 100 to 1000 nM.

Turning to `Nc1nnc2n1-c1cc(-c3ccccc3)c(-c3ccc(C4(N)CCC4)cc3)nc1OC2` [Example 50, 7-(4-(1-aminocyclobutyl)phenyl)-8-phenyl-4H-pyrido[2,3-b][1,2,4]triazolo[4,3-d][1,4]oxazin-1-amine], the IC50 is 100 to 1000 nM at AKT2, 1000 to 10000 nM at AKT3 and at most 100 nM on AKT1.

Consider `NC1(c2ccc(-c3nc4c(cc3-c3ccccc3)-n3c(nnc3-c3ccccn3)CO4)cc2)CCC1` [Example 130, 1-(4-(8-phenyl-1-(pyridin-2-yl)-4H-pyrido[2,3-b][1,2,4]triazolo[4,3-d][1,4]oxazin-7-yl)phenyl)cyclobutanamine], for which the results for the IC50 on AKT2, at AKT3 and on AKT1 were over 10000 nM, over 10000 nM and 100 to 1000 nM, respectively.

`NC1(c2ccc(-c3nc4c(cc3-c3ccccc3)-n3c(nnc3C(F)F)CO4)cc2)CCC1` [Example 98, 1-(4-(1-(difluoromethyl)-8-phenyl-4H-pyrido[2,3-b][1,2,4]triazolo[4,3-d][1,4]oxazin-7-yl)phenyl)cyclobutanamine]: the IC50 at AKT2 is 100 to 1000 nM; at AKT3, 100 to 1000 nM; at AKT1 it was at most 100 nM.

For the compound `CCc1nnc2n1-c1cc(-c3ccccc3)c(-c3ccc([C@]4(N)C[C@](C)(O)C4)cc3)nc1OC2` [Example 138, (1r,3r)-3-amino-3-(4-(1-ethyl-8-phenyl-4H-pyrido[2,3-b][1,2,4]triazolo[4,3-d][1,4]oxazin-7-yl)phenyl)-1-methylcyclobutanol], the IC50 was 100 to 1000 nM on AKT2, 1000 to 10000 nM at AKT3 and at most 100 nM on AKT1.

As to `CN1CCc2nc(-c3ccc(C4(N)CCC4)cc3)c(-c3ccccc3)cc2C1=O` [Example 23, 2-(4-(1-aminocyclobutyl)phenyl)-6-methyl-3-phenyl-7,8-dihydro-1,6-naphthyridin-5(6H)-one], the IC50 on AKT2 was 1000 to 10000 nM; at AKT3, over 10000 nM; on AKT1, 100 to 1000 nM.

With `CCN1C(=O)COc2nc(-c3ccc([C@]4(N)C[C@](C)(O)C4)cc3)c(-c3ccccc3)cc21` [Example 143, 6-(4-((1r,3r)-1-amino-3-hydroxy-3-methylcyclobutyl)phenyl)-1-ethyl-7-phenyl-1H-pyrido[2,3-b][1,4]oxazin-2(3H)-one], the IC50 on AKT2 was at most 100 nM; on AKT3, 100 to 1000 nM; at AKT1 it was at most 100 nM.

Turning to `CN1Cc2nc(-c3ccc(C4(N)CCC4)cc3)c(-c3ccccc3)cc2N(C)C1=O` [Example 89, 6-(4-(1-aminocyclobutyl)phenyl)-1,3-dimethyl-7-phenyl-3,4-dihydropyrido[3,2-d]pyrimidin-2(1H)-one], the IC50 is 100 to 1000 nM at AKT2, 1000 to 10000 nM at AKT3 and 100 to 1000 nM at AKT1.

`N#CCN1C(=O)COc2nc(-c3ccc(CN)cc3)c(-c3ccccc3)cc21` [Example 135, 2-(6-(4-(aminomethyl)phenyl)-2-oxo-7-phenyl-2,3-dihydro-1H-pyrido[2,3-b][1,4]oxazin-1-yl)acetonitrile]: the IC50 on AKT2 was at most 100 nM; on AKT3, 1000 to 10000 nM; on AKT1, 100 to 1000 nM.

As for `CC1Oc2nc(-c3ccc(C4(N)CCC4)cc3)c(-c3ccccc3)cc2NC1=O` (stereo not drawn) [Example 80, 6-(4-(1-aminocyclobutyl)phenyl)-3-methyl-7-phenyl-1H-pyrido[2,3-b][1,4]oxazin-2(3H)-one], the figures for the IC50 at AKT2, on AKT3 and on AKT1 were 100 to 1000 nM, over 10000 nM and 100 to 1000 nM, respectively.

As to `NC1(c2ccc(-c3nc4c(cc3-c3ccccc3)N(Cc3ccccn3)C(=O)CO4)cc2)CCC1` [Example 56, 6-(4-(1-aminocyclobutyl)phenyl)-7-phenyl-1-(pyridin-2-ylmethyl)-1H-pyrido[2,3-b][1,4]oxazin-2(3H)-one], the IC50 on AKT2, on AKT3 and at AKT1 was 100 to 1000 nM each time.

Consider `NC1(c2ccc(-c3nc4c(cc3-c3ccccc3)-n3cnnc3CO4)cc2)CCC1` [Example 39, 1-(4-(8-phenyl-4H-pyrido[2,3-b][1,2,4]triazolo[4,3-d][1,4]oxazin-7-yl)phenyl)cyclobutanamine], for which the results for the IC50 on AKT2, at AKT3 and on AKT1 were 1000 to 10000 nM, over 10000 nM and 100 to 1000 nM, respectively.

Take `CCc1nnc2n1-c1cc(-c3ccccc3)c(-c3ccc([C@]4(N)C[C@@H](O)C4)cc3)nc1OC2` [Example 136, (1s,3s)-3-Amino-3-(4-(1-ethyl-8-phenyl-4H-pyrido[2,3-b][1,2,4]triazolo[4,3-d][1,4]oxazin-7-yl)phenyl)cyclobutanol]: the IC50 on AKT2 lay in the range of 1000 to 10000 nM; on AKT3 it was 1000 to 10000 nM; at AKT1, 100 to 1000 nM.

As for `NC1(c2ccc(-c3nc4c(cc3-c3ccccc3)N(C3CCCC3)C(=O)CO4)cc2)CCC1` [Example 58, 6-(4-(1-aminocyclobutyl)phenyl)-1-cyclopentyl-7-phenyl-1H-pyrido[2,3-b][1,4]oxazin-2(3H)-one], the IC50 was in the range of 100 to 1000 nM on AKT2, 1000 to 10000 nM on AKT3 and 1000 to 10000 nM at AKT1.

For the compound `NC1(c2ccc(-c3nc4c(cc3-c3ccccc3)-c3n[nH]cc3CCC4)cc2)CCC1` [Example 21, 1-(4-(9-phenyl-2,4,5,6-tetrahydropyrazolo[3′,4′:3,4]cyclohepta[1,2-b]pyridin-8-yl)phenyl)cyclobutanamine], the IC50 on AKT2 is 1000 to 10000 nM; at AKT3 it was over 10000 nM; on AKT1, 100 to 1000 nM.

On to `NC1(c2ccc(-c3nc4c(cc3-c3ccccc3)/C(=N/O)CCC4)cc2)CCC1` [Example 2, 2-(4-(1-aminocyclobutyl)phenyl)-3-phenyl-7,13-dihydroquinolin-5(6H)-one oxime], for which the IC50 on AKT2 was 1000 to 10000 nM; at AKT3 it was over 10000 nM; at AKT1 it was 100 to 1000 nM.
